Data set [1] has as its system IL-1β, TNFα, MCP-1, KC, MMP-3. The experiment in a line: ELISA of pro-inflammatory molecules in ankle extracts. In kind it is in vivo, mouse. Also noted: IL-1β / TNFα / MCP-1 / KC / MMP-3: unit not given here. Conditions: ankle joints, seven days post-serum transfer; mean ± standard error. The procedure:
(§1) At each time point and prior to euthanasia, the degree of arthritis as indicated by joint swelling was quantitated by measuring two perpendicular diameters of the ankles using a caliper (Lange Caliper: Cambridge Scientific Industries, Cambridge Mass.). Joint circumference was calculated using the geometric formula of ellipse circumference (2πX √(a^2+b^2)/2). Following euthanasia, serum was isolated from peripheral blood by cardiac stick and ankle joints were removed. One of the ankle joints was fixed in 10% neutral buffered formalin for 24 hours, decalcified in EDTA-decalcification buffer for two weeks, embedded in paraffin, and sectioned. The other ankle joint was placed in liquid nitrogen, grounded into a fine powder by mortal and pestle, digested in protein lysis buffer ([…], 0.5% NP-40, 50 mM Tris, and 2 mM EDTA) in the presence of phosphatase and protease inhibitors, and homogenized on ice for 20 seconds. To examine any toxicity due to systemic delivery of TAT-Bim peptides, alkaline phosphatase (ALP), […] (AST), alanine aminotransferase (ALT), and blood urea nitrogen levels were measured.
For detection of mouse IL-1β, TNFα, MCP-1, KC, or MMP-3 in ankle extracts, sandwich ELISAs were performed according to the manufacturer's instructions (R & D Systems, Minneapolis, Minn.). The sensitivity for all cytokines was 15.6 pg/mL for IL-1β and KC, 7.813 pg/mL for TNFα and MCP-1, and 0.312 ng/mL for MMP3. ELISAs were quantitated by absorbance at 450 nm on a microplate reader (BioRad, Hercules, Calif.). Data obtained using ELISA on ankle extracts were normalized by the total protein concentration (μg/μL) for each individual ankle extract.
Mice were euthanized at seven days post-serum transfer. Ankle joints from each mouse were isolated, snap frozen, grounded into a fine powder, lysed, and examined for IL-1β, TNFα, MCP-1, KC, and MMP-3 production using an ELISA. Data are shown as μg/μL per joint. Values represent the mean±standard error, which were compared by Student's t-test.
For orientation: An ELISA detects its analyte on a solid surface through an enzyme-linked reagent.

The test system of data set [2] is peripheral blood cells. The experiment in a line: Peripheral blood cell counts (flow cytometry, hematology analyzer). Conditions: peripheral blood, mean ± standard error. In kind it is in vivo, mice. How it is done: Peripheral blood and bone marrow were isolated from mice following euthanasia. Total leukocyte numbers were determined using an automated hematology analyzer ABX Pentra 60 (Diamond Diagnostics, Inc, Holliston, Mass.). The red blood cells in peripheral blood were lysed and the remaining cells were fixed with BD FACS lysing solution (BD Biosciences, Pharmingen) following incubation with antibodies. Bone marrow cells were isolated by flushing Dulbecco's Modified Eagle Medium (DMEM) (Gibco, Grand Island, N.Y.) through the tibias and red blood cells were lysed with BD PharM Lyse (BD Biosciences, Pharmingen) prior to incubation with antibodies. Cells with incubated with Fc Block (BD Biosciences, Pharmingen) then stained with fluorochrome conjugated antibodies to CD45, CD11b, Gr-1, CD62L, Ly-6C, Ly-6G, CD31 (BD Biosciences, Pharmingen) or isotype control antibodies for 30 minutes. Cells were acquired on a BD LSRII (BD Biosciences, Pharmingen) using Diva Software at the Saint Louis University Core Flow Cytometry Facility. All analysis was performed using FlowJo software (Tree Star Inc.).
Peripheral blood was isolated by cardiac sticks. Cells were blocked for 10 minutes with Fc block and then stained with anti-CD45, anti-CD19, anti-CD3, anti-CD4, anti-CDS, anti-CD11b, anti-Gr-1, and anti-CD62L antibodies for 30 minutes. Platelets and RBCs were determined on an automated hematology analyzer ABX Pentra 60. Following incubation with antibodies red blood cells were lysed and cells were fixed with Becton Dickenson FACS lysing solution.
Background: Flow cytometry measures light scatter and fluorescence of single cells or particles in a stream.

In data set [3] the test system is IL-1β, TNFα, MCP-1, KC. The experiment in a line: Circulating cytokine levels in serum. Particulars: between saline, TAT-inactive BH3 and TAT-BH3 groups. In kind it is in vivo, mice. The procedure: as §1
TAT-BH3 peptides treatment reduces the numbers of myeloid cells in arthritic joints. […] To this end, the numbers of polymorphonuclear cell and macrophages in saline and BH3 peptide arthritic mice were quantified. […]

A short description of data set [4]: Toxicity: serum ALP, AST, ALT, blood urea nitrogen and liver histology in arthritic mice. In kind it is in vivo. Conditions: liver sections of arthritic mice. How it is done: as §1
(§2) Paraffin embedded ankle or liver sections were stained with hematoxylin and eosin (H&E), Safranin O and methyl green. Histopathological scoring was performed and ankle sections were evaluated by examining at least 3 sections/ankle and 3 fields/section at 400× magnification. H&E ankle sections were scored on a 0-5 scale for inflammation, with 0=normal, 1=minimal infiltration, 2=mild infiltration, 3=moderate infiltration, […], mad 5=severe infiltration. Bone erosion was scored on a 0-5 scale by viewing H&E ankle sections, with 0=no or normal bone resorption, 1=small areas of resorption, 2=more numerous areas of resorption, 3=obvious resorption, 4=full thickness defects in the bone without distortion of the profile, 5=full thickness defects in the bone with distortion of the profile. H&E ankle stained sections were scored on a 0-5 scale for pannus formation, with 0=no pannus formation, 1=minimal pannus formation, 2=mild pannus formation, 3=moderate pannus formation, 4=marked pannus formation, and 5=severe pannus formation. H&E and Safranin 0 and methyl green sections were scored on a 0-5 scale for cartilage damage, with 0=no damage, 1-2=superficial cartilage destruction, 3-4=cartilage destruction to middle zone, 5=cartilage destruction to tide mark. Polymorphonuclear (PMN) leukocyte infiltration: 0=no PMNs, 1=rare scattered PMNs, 2=more frequent scattered PMNs, 3=small clusters of PMNs, 4=larger clusters of PMNs, mad 5=sheets of PMNs (abscess). Histopathological scoring was conducted on an Olympus BX40 microscope (1000×). Photographs were taken on a Nikon microscope equipped with the Nikon digital camera DMX 1200.

Data set [5] has as its system K/B×N serum transfer-induced arthritis. The experiment in a line: Histopathological scoring of ankle sections (H&E, safranin O/methyl green). Particulars: saline vs TAT-inactive BH3. In kind it is in vivo, mice. How it is done:
as §2
To accurately assess the degree of inflammation and destruction of cartilage and bone, ankle sections were examined using a histopathological scoring system on hematoxylin and eosin (H& E) or safranin O-methyl green stained ankle sections.

For data set [6] the test system is unchanged. Briefly: K/B×N serum transfer-induced arthritis, ankle circumference (joint swelling). In kind it is in vivo, mice.
Excerpt: The seven-week-old progeny from homozygous KRN TCR transgenic mice (C57BL/6 background) crossed with non-obese diabetes (NOD) mice (K/B×N) were euthanized, peripheral blood was isolated, and serum were collected and pooled. One hundred and fifty microliters of K/B×N serum were intraperitoneally injected on each flank of 6-week old wt mice.
as §1
Therefore, peptides to the BH3 domain of Bim were used that are fused to polycationic peptide derived from HIV-1 TAT. These peptides have shown to activate Bak and Bax, suppress Bcl-2 and Mcl-1, induce mitochondrial permeability, and release mitochondrial cytochrome c. Mice were intraperitoneally injected with K/B×N serum to induce the effector phase of inflammatory arthritis.

The test system of data set [7] is cells that express high levels of Mcl-1. Conditions: literature statement; cited from earlier work.
The test system of data set [8] is platelets. Particulars: literature statement; cited from earlier work.

Square brackets hold non-standard residues; d marks the D form. Peptide text beside a SMILES is read from it. Orn = NCCC[C@H](N)C(=O)O

In data set [1], `CC[C@H](C)[C@H](NC(=O)[C@H](CCCNC(=N)N)NC(=O)[C@H](CCCNC(=N)N)NC(=O)[C@H](C)NC(=O)[C@H](CCC(=O)O)NC(=O)[C@H](CCC(N)=O)NC(=O)[C@H](C)NC(=O)[C@@H](NC(=O)[C@H](Cc1c[nH]c2ccccc12)NC(=O)[C@@H](NC(=O)[C@H](CCC(=O)O)NC(=O)[C@H](CCCNC(=N)N)NC(=O)[C@H](CCCNC(=N)N)NC(=O)[C@H](CCCNC(=N)N)NC(=O)[C@H](CCCN)NC(=O)[C@H](CCCNC(=N)N)NC(=O)[C@H](CCCNC(=N)N)NC(=O)[C@H](CCCCN)NC(=O)[C@H](CCCCN)NC(=O)[C@H](CCCNC(=N)N)NC(C)=O)[C@@H](C)CC)[C@@H](C)CC)C(=O)NCC(=O)N[C@@H](C)C(=O)N[C@@H](CCC(=O)O)C(=O)N[C@@H](Cc1ccccc1)C(=O)N[C@@H](CC(N)=O)C(=O)N[C@@H](C)C(=O)N[C@@H](Cc1ccc(O)cc1)C(=O)N[C@@H](Cc1ccc(O)cc1)C(=O)N[C@@H](C)C(=O)N[C@@H](CCCNC(=N)N)C(=O)O` [reference compound] (Ac-RKKRR[Orn]RRREIWIAQEARRIGAEFNAYYAR-OH) registered an IL-1β of 824 ± 103, a KC of 428 ± 45, an MCP-1 of 196 ± 17 and an MMP-3 of 17 ± 4. Further, the TNFα in data set [1] was found to be 4.4 ± 0.3. Further, in data set [2] (hematology analyzer), the Platelets is listed as 1305.75 ± 70.03 (1E6) and the RBCs is given as 9.84 ± 0.22 (1E6). In data set [2], the “B-cells+” value was 2.38 ± 0.21 (1E6), the “CD4+ T-cells” value is listed as 1.15 ± 0.10 (1E6), the “CD8+ T-cells” value is 0.72 ± 0.06 (1E6) and the Inflammatory monocytes was 0.25 ± 0.03 (1E6). Besides, in data set [2], the N-K-cells is given as 0.19 ± 0.13 (1E6), the “Resident Monocytes” value was 0.14 ± 0.01 (1E6), the T-cells is 1.94 ± 0.17 (1E6) and the “Total Leukocytes” value is listed as 6.1 ± 0.18 (1E6). Moreover, the “circulating levels of IL-1β, TNFα, MCP-1, and KC in serum” value in data set [3] is listed as “no differences”. Further, the liver histology entry in data set [4] is on record as “no gross histologic abnormalities”. Moreover, the “difference in histological scores versus saline” value in data set [5] is listed as “no statistical difference”. The “change in ankle circumference” value in data set [6] (day 2 after K/B×N serum, 2 mg/kg i.p.) came out at 1.6 mm. Moreover, in data set [6] (saline vs TAT-inactive BH3), the “difference in arthritis (ankle circumference) versus saline” value is on record as “no statistical difference”.
Consider `CN(C)CC[C@H](CSc1ccccc1)Nc1ccc(S(=O)(=O)NC(=O)c2ccc(N3CCN(Cc4ccccc4-c4ccc(Cl)cc4)CC3)cc2)cc1[N+](=O)[O-]` [ABT-737], for which the “effect on cells that express high levels of Mcl-1” value in data set [7] is listed as “no effect”. Moreover, the “effect on platelet numbers” value in data set [8] is “dramatic effect”.

Values taken from US8785388B2, “TAT-BH3 methods for treating arthritis” (Saint Louis University, priority 2007, dated 2014).
